Results taken from US20240342298A1, “METHODS OF TREATING TUMORS BY USING MOLECULAR CONSTRUCT” (Immunwork Inc., priority 2023, published 2024).

Assays:
[1] = HPLC analysis after 5-day incubation in PBS or RPMI medium without cells; assay type: physicochemical; conditions: 1 μM in PBS, 37° C., 5 days
Method: The total run time was 45 minutes.
(Panels (A) and (D) of FIG. 8B).

[2] = tested on: H929 cells; assay: alamarBlue cell viability assay, H929 cells; assay type: cell-based, human
Method: (§1) Briefly, H929, U266-CD38^−, MM.1S, and Daudi cells were seeded at 5,000 cells/well in 96-well plates and co-cultured with fresh medium containing different test articles with the indicated concentrations at 37° C. for 5 hours, 1 day, 3 days, or 5 days. The viabilities of the cells were determined by alamarBlue™ cell viability reagent. About 10 μl alamarBlue™ cell viability reagent was added to the cells with a final concentration of 10% v/v, followed by incubating at 37° C. for 1.5 hours. The fluorescence was measured on a microplate reader in arbitrary fluorescent units following excitation at 560 nm and emission at 590 nm.
(§2) H929 cells were incubated for 5 hours, 1 day, 3 days, or 5 days (FIGS. 12A-12D), and MM.1S, U266-CD38-, and Daudi cells were incubated for 5 days (FIGS. 12E-12G). Then, cell viability was determined.

[3] = tested on: MM.1S cells; assay: alamarBlue cell viability assay, MM.1S cells; assay type: cell-based, human
Method: as §1, §2

[4] = tested on: U266-CD38- cells; assay: alamarBlue cell viability assay, U266-CD38- cells; assay type: cell-based; conditions: 5 days, FIG. 12F
Method: as §1, §2

[5] = tested on: H929 tumors; assay: H929 xenograft tumor model (tumors 150±20 mm^3); assay type: in vivo, NOD-SCID mice; conditions: 28 days
Method: (§3) To generate subcutaneous tumors, 2×10^7 H929 cells in PBS were mixed with 50% (v/v) extracellular matrix gel and injected subcutaneously into the flanks of NOD-SCID mice. Tumor size and body weight were recorded every 2-3 days. Volumes of subcutaneously xenografted tumors in vivo were determined using an external caliper, where tumor volume was calculated by the modified ellipsoid formula, ½×(length×width×width). […] At the end of experiments, tumors were collected and weighed. Statistical analysis was performed with Student t test and statistical differences between groups were analyzed by one-way ANOVA with Bonferroni's multiple comparison post-tests.

[6] = tested on: H929 tumors; assay: H929 xenograft tumor model, pilot study (tumors 115±15 mm^3); conditions: single dose 20 nmol/kg i.p. 7 days post-transplantation, measured for 21 days
Method: as §3
The tumors from all mice were excised and weighed on day 21 post drug administration.

Row | Compound | HPLC peaks after long-term incubation (hydrolysis) [1] | cell killing ([2]; at doses >10 μM) | cell killing ([3]; at doses >10 μM) | killing effect [4] | tumor growth compared to PBS ([5]; daily i.p. injections) | effect of cell death ([2]; even at doses >20 μM) | effect of cell death ([3]; even at doses >20 μM) | tumor growth compared to PBS ([5]; single dose 20 nmol/kg on day 14 after transplantation) | change of tumor sizes compared to PBS [6]
1 | Nc1cccc2c1CN(C1CCC(=O)NC1=O)C2=O (stereo not shown) [lenalidomide] | two additional peaks (p2 and p1) respectively corresponding to its two hydrolyzed forms | only weak killing | only weak killing | some killing effect at high concentrations | inhibited tumor growth | – | – | – | –
2 | daratumumab | – | – | – | did not possess any killing effect | – | no effect of cell death | no effect of cell death | inhibited tumor growth | could only slow down tumor growth
